Source: ChEMBL document CHEMBL2407060, “1,1-Dioxo-5,6-dihydro-[4,1,2]oxathiazines, a novel class of 11ß-HSD1 inhibitors for the treatment of diabetes” (Bioorg Med Chem Lett, 2013)

Assays:
[1] = Drug metabolism in human liver microsomes after 20 mins; assay type: ADME, Microsome; settings: read-out: Drug metabolism
[2] = Drug metabolism in mouse liver microsomes after 20 mins; assay type: ADME, Microsome; settings: read-out: Drug metabolism
[3] = target: 11-beta-hydroxysteroid dehydrogenase 1 (Mus musculus, UniProt P50172); test: Inhibition of mouse 11beta-HSD1
[4] = target: 11-beta-hydroxysteroid dehydrogenase 1 (Homo sapiens, UniProt P28845); test: Inhibition of human 11beta-HSD1
[5] = Chemical stability of the compound under neutral condition; assay type: physicochemical
[6] = Metabolic stability in plasma (unknown origin) assessed as compound degradation; assay type: ADME, cell-free
[7] = Chemical stability of the compound under acidic condition; assay type: physicochemical
[8] = target: 11-beta-hydroxysteroid dehydrogenase 1 (Rattus norvegicus, UniProt P16232); test: Inhibition of rat 11beta-HSD1
Sequence of 11-beta-hydroxysteroid dehydrogenase 1 (Rattus norvegicus, UniProt P16232) (P16232 whole entry): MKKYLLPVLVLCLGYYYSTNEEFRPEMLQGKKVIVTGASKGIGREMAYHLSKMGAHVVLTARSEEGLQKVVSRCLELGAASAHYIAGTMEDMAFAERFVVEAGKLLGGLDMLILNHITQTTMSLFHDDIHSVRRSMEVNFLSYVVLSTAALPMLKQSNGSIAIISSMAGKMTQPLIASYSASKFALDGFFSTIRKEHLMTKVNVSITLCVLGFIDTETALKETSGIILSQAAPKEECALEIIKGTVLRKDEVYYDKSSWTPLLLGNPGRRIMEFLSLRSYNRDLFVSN

Sequence of 11-beta-hydroxysteroid dehydrogenase 1 (Mus musculus, UniProt P50172) (P50172 whole entry): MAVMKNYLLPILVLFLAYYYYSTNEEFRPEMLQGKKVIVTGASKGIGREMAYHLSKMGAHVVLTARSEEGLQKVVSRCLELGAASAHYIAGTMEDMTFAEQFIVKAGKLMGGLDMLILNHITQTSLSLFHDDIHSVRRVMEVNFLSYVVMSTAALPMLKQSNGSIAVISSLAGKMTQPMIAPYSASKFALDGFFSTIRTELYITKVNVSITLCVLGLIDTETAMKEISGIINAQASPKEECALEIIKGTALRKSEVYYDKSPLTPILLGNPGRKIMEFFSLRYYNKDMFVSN
Sequence of 11-beta-hydroxysteroid dehydrogenase 1 (Homo sapiens, UniProt P28845) (P28845 whole entry): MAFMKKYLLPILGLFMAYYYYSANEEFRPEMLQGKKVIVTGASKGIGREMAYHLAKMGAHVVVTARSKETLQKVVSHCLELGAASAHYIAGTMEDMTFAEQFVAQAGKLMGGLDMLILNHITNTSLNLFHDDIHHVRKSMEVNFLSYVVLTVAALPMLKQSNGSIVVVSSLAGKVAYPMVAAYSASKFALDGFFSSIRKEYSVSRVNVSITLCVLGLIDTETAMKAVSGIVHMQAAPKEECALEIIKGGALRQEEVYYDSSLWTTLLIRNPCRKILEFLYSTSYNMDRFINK

SMILES | metabolised at 20 min [1] [%] | metabolised at 20 min [2] [%] | IC50 [3] [nM] | also measured
CC1(C)OC(NC2CCCCC2)=NS(=O)(=O)C1(C)C | 5 | 9 | 865 | 
O=S1(=O)N=C(NC2CCCCCC2)O[C@H]2CCCC[C@H]21 (racemic) | 45 | 54 | 87 | 
O=S1(=O)NC(=NC2CCCCC2)O[C@@H]2CCNC[C@H]21 (racemic) |  |  |  | IC50 [4]: > 2250 nM
C[C@H](NC1=NS(=O)(=O)C(C)(C)C(C)(C)O1)c1ccccc1Cl |  |  | 29 | 
O=S1(=O)N=C(N[C@@H](CCCO)c2ccccc2)O[C@H]2CCCC[C@H]21 | 89 | 78 | 294 | 
O=S1(=O)N=C(NC2CCCCC2)OC2(CCC2)C12CC2 |  |  | 813 | 
CC1(C)OC(N[C@@H](CCO)c2ccc(F)cc2)=NS(=O)(=O)C1(C)C | 2 | 9 | 199 | 
CC(C)(NC1=NS(=O)(=O)[C@@H]2CCCC[C@@H]2O1)c1ccccc1 (mixture of isomers) |  |  | 444 | 
O=S1(=O)N=C(NC2CCCCCCC2)O[C@H]2CCCC[C@H]21 (racemic) | 79 | 84 | 31 | 
O=S1(=O)N=C(NC2CCCCC2)O[C@H]2CCCC[C@H]21 (racemic) | 18 | 19 |  | 
O=S1(=O)NC(=NC23CCC(CC2)CC3)O[C@H]2CCCC[C@H]21 | 94 | 87 | 275 | 
O=S1(=O)N=C(NC23CCC(O)(CC2)CC3)O[C@H]2CCCC[C@H]21 (mixture of isomers) | 12 | 20 | 695 | 
O=S1(=O)NC(=NCC23CC4CC(CC(C4)C2)C3)O[C@H]2CCCC[C@H]21 (mixture of isomers) |  |  | 76 | 
O=S1(=O)NC(=NC23CC4CC(CC(C4)C2)C3)O[C@H]2CCCC[C@H]21 | 91 | 98 | 40 | 
CC1(C)OC(NC2CCCCC2)=NS(=O)(=O)C12CC2 |  |  | 1620 | 
CN1CC[C@@H]2OC(=NC3CCCCC3)NS(=O)(=O)[C@@H]2C1 (racemic) |  |  |  | IC50 [4]: > 2250 nM
CC1(C)OC(N[C@@H](CCO)c2cccc(C#N)c2)=NS(=O)(=O)C1(C)C |  |  | 110 | 
O=S1(=O)N=C(NC2CCCCC2)O[C@H]2CCCC[C@H]21 |  |  |  | Stability [5]: Stable; Stability [6]: Stable; Stability [7]: Stable; IC50 [8]: 246 nM

SMILES | metabolised at 20 min [1] [%] | metabolised at 20 min [2] [%] | IC50 [3] [nM] | also measured
CC1(C)OC(N[C@@H](CCO)c2ccccc2)=NS(=O)(=O)C1(C)C | 4 | 11 | 232 | 
O=S1(=O)N=C(N[C@@H](CCO)c2ccccc2)O[C@H]2CCCC[C@H]21 (mixture of isomers) | 77 | 41 | 16 | 
O=S1(=O)N=C(NC23CCC(F)(CC2)CC3)O[C@H]2CCCC[C@H]21 (mixture of isomers) |  |  | 454 | 
O=S1(=O)NC(=N[C@@H](CO)c2ccccc2)O[C@H]2CCCC[C@H]21 (mixture of isomers) |  |  | 152 | 
CC(C)(O)C[C@H](NC1=NS(=O)(=O)C(C)(C)C(C)(C)O1)c1ccccc1Cl |  |  | 452 | 
CCC1OC(NC2CCCCC2)=NS(=O)(=O)C12CC2 (centres undefined) |  |  | 2510 | 
O=S1(=O)NC(=NC2CCCCC2)O[C@@H]2CCCC[C@H]21 |  |  |  | IC50 [8]: 1140 nM
O=S1(=O)N=C(NC2CCCCC2)O[C@H]2CCNC[C@H]21 (racemic) |  |  |  | IC50 [4]: > 2250 nM
CC1(C)CCC(N=C2NS(=O)(=O)[C@@H]3CCCC[C@@H]3O2)CC1 (racemic) | 55 | 55 | 455 | 
O=S1(=O)NC(=NCC2CCCCC2)O[C@H]2CCCC[C@H]21 (racemic) |  |  | 729 | 
O=S1(=O)NC(=NC23CC4CC(CC2C4)C3)O[C@H]2CCCC[C@H]21 (mixture of isomers) | 83 | 65 | 9 | 
O=S1(=O)NC(=NC23CC4CC(CC(O)(C4)C2)C3)O[C@H]2CCCC[C@H]21 (mixture of isomers) |  |  | 400 | 
O=S1(=O)NC(=NCc2ccccc2)O[C@H]2CCCC[C@H]21 |  |  | 786 | 
CC1(C)CC(NC2=NS(=O)(=O)[C@@H]3CCCC[C@@H]3O2)CC(C)(C)C1 (racemic) | 93 | 97 | 57 | 
O=S1(=O)N=C(NC23CCCC2CCC3)O[C@H]2CCCC[C@H]21 (mixture of isomers) |  |  | 47 | 
CC1(C)OC(N[C@@H](CCO)c2ccccc2Cl)=NS(=O)(=O)C1(C)C | 25 | 52 | 26 | 
C[C@H](NC1=NS(=O)(=O)C(C)(C)C(C)(C)O1)c1ccccc1 |  |  | 286 | 
NC(=O)C[C@H](NC1=NS(=O)(=O)[C@@H]2CCCC[C@@H]2O1)c1ccccc1 (mixture of isomers) | 47 | 35 |  | 
